We go through 1 compound from paper PMC9745799, “Polymyxin Stereochemistry and Its Role in Antibacterial Activity and Outer Membrane Disruption” (ACS Infectious Diseases, 2022).

Converted amounts (≈) assume the structure as drawn. “And” between values parts separate entries of the source, which are not always exact repeats. Identical values can stand only once. Positions of bridges follow the written chain, without caps; N, C: chain ends. Non-standard residues stand in square brackets, D forms with d. Residues, ends and D or L forms follow the SMILES beside them. *: point of attachment. dDab = NCC[C@@H](N)C(=O)O; Heptanoyl = CCCCCCC(=O)*

A word on the MIC: it is the least concentration at which growth counts as inhibited. Read a low MIC as a more susceptible organism.

One assay relates to A. baumannii ATCC 19606. The format is cell-based. The following applies: A. baumannii ATCC 19606. The method, then:
(§1) MICs of compounds were determined following CLSI guidelines using the microbroth dilution method in polypropylene plates. Selected Gram-negative bacterial strains (see Table S2 for strain sources) were taken from glycerol stocks and grown overnight on blood agar. Individual colonies were selected and grown in Tryptic Soy Broth (TSB) to an OD600 of 0.5. Compounds were diluted in Mueller Hinton Broth (MHB) supplemented with Mg^2+ and Ca^2+ at final concentrations of 12 and 20 mg/L, respectively (CAMHB). 50 μL was used for each well, and compounds were assessed in triplicates. Bacterial culture was diluted in CAMHB to 10^6 CFU/mL, yielding 5 × 10^5 CFU/mL upon addition of 50 μL of culture to 50 μL of compound solution. Positive and negative (sterility) controls were present on each plate. Plates were sealed with a semipermeable membrane and incubated for 22 h (A. baumannii) or 18 h (other strains) under shaking at 37 °C.

The next assay concerns E. coli ATCC 25922. It is filed as cell-based. The conditions noted are these: E. coli ATCC 25922. The method, then:
as §1

The test system of another assay is E. coli BW25113. It is filed as cell-based. The conditions noted are these: E. coli BW25113; CLSI microbroth dilution, CAMHB, 18 h, 37 °C, triplicate. The method, then:
as §1
(In general: Dilution methods test growth across graded concentrations, often in twofold steps.)

The next assay has as its system E. coli JW3594 (ΔwaaD). It is filed as cell-based. The following applies: truncated LPS, CLSI microbroth dilution, CAMHB, 18 h, 37 °C, triplicate. The method, then:
as §1

For another assay, the system named is E. coli JW3596 (ΔwaaC). It is filed as cell-based. The conditions noted are these: truncated LPS, CLSI microbroth dilution, CAMHB, 18 h, 37 °C, triplicate. The method, then:
as §1

For the next assay, the system named is E. coli mcr-1. The format is cell-based. The conditions noted are these: CLSI microbroth dilution, CAMHB, 18 h, 37 °C, triplicate. The method, then: as §1
In a further assay the test system is K. pneumoniae ATCC 13883. It is filed as cell-based. The following applies: K. pneumoniae ATCC 13883. The method, then:
as §1

For a further assay, the system named is P. aeruginosa 2018-007. It is filed as cell-based. The conditions noted are these: P. aeruginosa 2018-007; CLSI microbroth dilution, CAMHB, 18 h, 37 °C, triplicate. The method, then:
as §1

The subject of the next assay is P. aeruginosa ATCC 10145. It is filed as cell-based. The conditions noted are these: P. aeruginosa ATCC 10145. The method, then: as §1
The subject of a further assay is P. aeruginosa ATCC 27853. The format is cell-based. The following applies: P. aeruginosa ATCC 27853; CLSI microbroth dilution, CAMHB, 18 h, 37 °C, triplicate. The method, then: as §1
For a further assay, the system named is P. aeruginosa NRZ03961. It is filed as cell-based. The conditions noted are these: P. aeruginosa NRZ03961; CLSI microbroth dilution, CAMHB, 18 h, 37 °C, triplicate. The method, then: as §1
Assay [1] deals with polymyxin-resistant (mcr-1 positive) E. coli. Description: microbe, parasite or virus in culture. It is filed as cell-based. The conditions noted are these: E. coli mcr-1, checkerboard. The method, then: (§2) Selected Gram-negative bacterial strains were taken from glycerol stocks and grown overnight on blood agar. A single colony was inoculated in TSB broth at 37 °C until an optical density of 0.5 at 600 nm (OD600) was reached. The bacterial suspension was diluted in freshly prepared CAMHB to 10^6 CFU/mL. Compounds were diluted along the plate, using 25 μL of CAMHB for each dilution. Antibiotic concentrations were prepared separately in a multiwell reservoir, including a control without antibiotic. Of each antibiotic stock, 25 μL was added to three columns to obtain triplicates for every condition. To each 50 μL containing well was then added 50 μL of the 10^6 CFU/mL bacterial suspension, and the plates were sealed with breathable seals. After incubation for 18 h at 37 °C while shaking, the seals were removed and the density of the bacterial suspensions was measured at 600 nm (OD600) using a Tecan Spark plate reader. The OD600 values were transformed to a 2D gradient with the negative control as the minimum and the positive control as the maximum. The FICI was calculated using the following equation: [drawing 1] with MSCant and MSCcomp indicating the optimal synergistic concentration of antibiotic and compound and MICant and MICcomp, the corresponding MICs of the individual compounds. An FICI ≤ 0.5 indicates synergy.[48]

In assay [2] the test system is polymyxin-sensitive E. coli ATCC 25922. The experiment in a line: microbe, parasite or virus in culture. The following applies: E. coli ATCC 25922. It is filed as cell-based. The method, then:
as §2

In assay [3] the test system is LPS from E. coli (O55:B5). Description: Isothermal titration calorimetry (ITC), LPS binding. The following applies: compound (1 mM) into LPS (20 µM), 20 mM HEPES pH 7, 37 °C, mean and SD of three experiments. The method, then: Stock solutions of LPS (10 mg/mL, 0.5 mM) were prepared in 20 mM HEPES at pH 7 by suspension, sonication, and temperature cycling between 4 and 60 °C and stored overnight prior to use. LPS from E. coli (O55:B5) was used. Lipopeptide solutions (1 mM in 20 mM HEPES, pH 7) were titrated into a suspension of LPS (0.020 mM) in the same buffer. Control titrations included the titration of peptide into buffer and buffer into the LPS suspension to determine the corresponding heat of dilution. All binding experiments were performed using a MicroCal PEAQ-ITC Automated microcalorimeter (Malvern Panalytical Ltd., Malvern, UK). The samples were equilibrated to 37 °C prior to measurement. The titrations were conducted at 37 °C under constant stirring at 750 rpm. Each experiment consisted of an initial injection of 0.3 μL followed by 25 separate injections of 1.5 μL into the sample cell of 200 μL. The time between each injection was 180 s, and the measurements were performed with the reference power set at 5 μcal s^–1 and the feedback mode set at “low”. For all calculations performed, an estimated molecular weight of 20 kDa for LPS was applied. The calorimetric data thus obtained were analyzed using MicroCal PEAQ-ITC Analysis Software Version 1.20 (Malvern Panalytical Ltd., Malvern, UK), where the integrated heat signal is corrected for the heat of dilution of the titrant.
In general terms: In ITC the heat of successive injections is recorded.

The mark [4] stands for this setting: CLSI microbroth dilution, CAMHB, 18 h, 37 °C, triplicate.

As for `CCCCCCC(=O)N[C@H](CCN)C(=O)N[C@@H](C(=O)N[C@H](CCN)C(=O)N[C@@H]1CCNC(=O)[C@@H]([C@H](C)O)NC(=O)[C@@H](CCN)NC(=O)[C@@H](CCN)NC(=O)[C@@H](CC(C)C)NC(=O)[C@H](Cc2ccccc2)NC(=O)[C@@H](CCN)NC1=O)[C@H](C)O` [ent-PmxB4] (Heptanoyl-[dDab][dT][dDab][dDab][dDab]F[dL][dDab][dDab][dT]; lactam 4-C), the MIC in presence of PMBN was over 128 µg/mL in the assay with A. baumannii ATCC 19606 (+ PMBN (8 ug/mL)), 128 µg/mL in the assay with E. coli ATCC 25922 (+ PMBN (8 ug/mL)), over 128 µg/mL in the assay with K. pneumoniae ATCC 13883 (+ PMBN (8 ug/mL)) and over 128 µg/mL in the assay on P. aeruginosa ATCC 10145 (+ PMBN (8 ug/mL)). Also, the MIC in presence of SPR741 was over 128 µg/mL in the assay with A. baumannii ATCC 19606 (+ SPR741 (8 ug/mL)), 128 µg/mL with E. coli ATCC 25922 (+ SPR741 (8 ug/mL)), over 128 µg/mL in the assay on K. pneumoniae ATCC 13883 (+ SPR741 (8 ug/mL)) and over 128 µg/mL in the assay on P. aeruginosa ATCC 10145 (+ SPR741 (8 ug/mL)). The MIC against A. baumannii ATCC 19606 (CLSI microbroth dilution, CAMHB, 22 h, 37 °C, triplicate) was over 128 µg/mL; in the assay on E. coli BW25113 it was over 128 µg/mL; in the assay on E. coli JW3594 (ΔwaaD) it was 128 µg/mL (≈ 109 µM); in the assay with E. coli JW3596 (ΔwaaC), 128 µg/mL (≈ 109 µM); with E. coli mcr-1 it was 128 µg/mL (≈ 109 µM); against K. pneumoniae ATCC 13883 (setting [4]), over 128 µg/mL. The MIC against P. aeruginosa 2018-007, in the assay with P. aeruginosa ATCC 10145 (setting [4]), in the assay on P. aeruginosa ATCC 27853 and against P. aeruginosa NRZ03961 was over 128 µg/mL in each case. For the same compound, the MIC alone worked out at 128 µg/mL in [1] (substance alone) and 128 µg/mL in assay [2] (checkerboard, substance alone). The FICI in assay [1] (combination with rifampicin, CAMHB, 18 h, 37 °C, OD600, FICI ≤ 0.5 indicates synergy) was 0.19 and 0.188. Also, in assay [2] (compound in combination with rifampicin, optimal synergistic concentration), the MIC in combination is on record as 8 µg/mL. The “ΔΔH, maximum enthalpy observed after subtraction of dilution control” value in assay [3] is given as -3.485 kcal/mol.
